In brackets after ≈: the same amount, converted by molar mass.
Assays:
[1] = Prodrug conversion in PBS assessed as half life for 50% release of Quinine in pH 7.4 at 37 degC after 1 hr by ESI-mass spectrometry; assay type: ADME; conditions: buffer, pH 7.4, 1 h
[2] = Prodrug conversion in PBS assessed as half life for 50% release of Phenytoin in pH 7.4 at 37 degC after 1 hr by ESI-mass spectrometry; assay type: ADME; conditions: buffer, pH 7.4, 1 h
[3] = Solubility of the compound in water at room temperature after 15 mins by HPLC analysis; assay type: physicochemical
[4] = Stability of the compound in methanol-CH3CN at 4 degC after 1 month by HPLC analysis; assay type: physicochemical; conditions: 730.5 h
[5] = Prodrug conversion in PBS assessed as half life for 50% release of Sulfathiazole in pH 7.4 at 37 degC after 1 hr by ESI-mass spectrometry; assay type: ADME; conditions: buffer, pH 7.4, 1 h
[6] = Prodrug conversion in PBS assessed as half life for 50% release of 2-Aminobenzimidazole in pH 7.4 at 37 degC after 1 hr by ESI-mass spectrometry; assay type: ADME; conditions: buffer, pH 7.4, 1 h
[7] = Prodrug conversion in PBS assessed as half life for 50% release of Quinine in pH 7.4 at 37 degC by ESI-mass spectrometry; assay type: ADME; conditions: buffer, TDE = time-dependent effect
[8] = Prodrug conversion in PBS assessed as half life for 50% release of ritonavir in pH 7.4 at 37 degC after 1 hr by ESI-mass spectrometry; assay type: ADME; conditions: buffer, pH 7.4, 1 h

Q: Which t1/2 [1] does the source give for `C=C[C@@H]1CN2CC[C@H]1C[C@H]2[C@H](OC(=O)CNC(=N)N)c1ccnc2ccc(OC)cc12.O=C(O)C(F)(F)F` here?
A: < 1 min

Q: For `C[C@H](NC(=N)N)C(=O)N1C(=O)NC(c2ccccc2)(c2ccccc2)C1=O.O=C(O)C(F)(F)F`, which t1/2 [2] is on record?
A: 1.1 min

Q: With `Nc1ccc(S(=O)(=O)Nc2nccs2)cc1.O=C(O)C(F)(F)F` as the compound, how does the solubility at 0.25 h [3] read?
A: 1.4 µg/mL

Q: Which results are given for `C[C@H](NC(=N)N)C(=O)Nc1ccc(S(=O)(=O)Nc2nccs2)cc1.O=C(O)C(F)(F)F`?
A: solubility at 0.25 h [3]: 7100 µg/mL; Stability [4]: Stable; t1/2 [5]: 40 min

Q: Which solubility at 0.25 h [3] does the source give for `N=C(N)NCC(=O)N1C(=O)NC(c2ccccc2)(c2ccccc2)C1=O.O=C(O)C(F)(F)F` here?
A: 10200 µg/mL

Q: And the Stability [4]?
A: Stable

Q: And the t1/2 [2]?
A: 13 min

Q: For `N=C(N)NCC(=O)Nc1nc2ccccc2[nH]1.O=C(O)C(F)(F)F`, which t1/2 [6] is on record?
A: 38 min

Q: For `C=C[C@@H]1CN2CC[C@H]1C[C@H]2[C@H](OC(=O)CCCN)c1ccnc2ccc(OC)cc12.O=C(O)C(F)(F)F`, which Drug metabolism [7] is on record?
A: tde

Q: What about the t1/2 [1] of the same compound?
A: 102 min

Q: With `C=C[C@@H]1CN2CC[C@H]1C[C@H]2[C@H](OC(=O)CCNC(=N)N)c1ccnc2ccc(OC)cc12.O=C(O)C(F)(F)F` as the compound, how does the solubility at 0.25 h [3] read?
A: > 10000 µg/mL

Q: What about the Stability [4] of the same compound?
A: Stable

Q: What about the t1/2 [1] of the same compound?
A: 1.1 min

Q: For `O=C1NC(=O)C(c2ccccc2)(c2ccccc2)N1` [PHENYTOIN], which solubility at 0.25 h [3] is on record?
A: 6.3 µg/mL (≈ 25 µM)

Q: For `CC(C)c1nc(CN(C)C(=O)N[C@H](C(=O)N[C@@H](Cc2ccccc2)C[C@H](O)[C@H](Cc2ccccc2)NC(=O)OCc2cncs2)C(C)C)cs1` [RITONAVIR], which t1/2 [8] is on record?
A: 42 h

Q: With `CN(CC(=O)N1C(=O)NC(c2ccccc2)(c2ccccc2)C1=O)C(=N)N.O=C(O)C(F)(F)F` as the compound, how does the t1/2 [2] read?
A: 0.78 min

Reference: ChEMBL document CHEMBL3779890, “Novel prodrugs with a spontaneous cleavable guanidine moiety” (Bioorg Med Chem Lett, 2016)
